The subject of series [1] is N. fowleri ATCC® 30,808™ trophozoites. Nature of the series: In vitro activity against trophozoites, alamarBlue, 48 h. The series is classed as cell-based, Naegleria fowleri. Particulars: for S.I. ATCC 30,808 (selectivity index CC50/IC50): CC50 J774A.1 / IC50 ATCC 30,808 trophozoites; for IC50 / IC90: Naegleria fowleri; for IC50: ATCC30, 48 h, read-out: N. fowleri ATCC 30,808 IC50, trophozoite stage; for IC90: ATCC30, read-out: N. fowleri ATCC 30,808 IC90. A general note: Resazurin is reduced to fluorescent resorufin, in cell work by metabolically active cells.

The test system of series [2] is N. fowleri ATCC® 30,808™ cysts. The series is described as follows: microbe, parasite or virus in culture. The series is classed as cell-based. To be noted: Naegleria fowleri, ATCC30, read-out: N. fowleri ATCC 30,808 IC50, cyst stage.
Series [3] relates to N. fowleri (ATCC® 30,808™) trophozoites. Nature of the series: Plasma membrane permeability, SYTOX Green. The series is classed as cell-based, Naegleria fowleri. To be noted: IC90, 24 h.
Series [4] shares this test system. The class given is cell-based, Naegleria fowleri. To be noted: trophozoites treated with IC90 for 24 h.
In series [5] the test system is N. fowleri ATCC® 30,215™ trophozoites. The series is described as follows: In vitro activity against trophozoites, alamarBlue, 48 h. The class given is cell-based. To be noted: Naegleria fowleri, ATCC30, 48 h, read-out: N. fowleri ATCC 30,215 IC50.
Series [6] has as its system N. fowleri (ATCC® 30,808™) trophozoites. Nature of the series: Chromatin condensation, Hoechst 33,342/Propidium Iodide double staining. The class given is cell-based, Naegleria fowleri. To be noted: IC90, 24 h.
The test system is the same in series [7]. The series is described as follows: Mitochondrial membrane potential depolarization, JC-1. The class given is cell-based, Naegleria fowleri. Particulars: IC90, 24 h.

Structures are written as SMILES. A value given as a limit tells only on which side of the number the result lay.

By IC50 is commonly meant the point on the concentration scale where inhibition reaches its midpoint. Consider `CCCCCCCCCCCCCCCCOP(=O)([O-])OCC[N+](C)(C)C` [MILTEFOSINE, miltefosine], for which the “S.I. ATCC 30,808 (selectivity index CC50/IC50)” value in series [1] is 3.3. The 50% inhibitory concentration (IC50) in series [2] was determined as 21.5 ± 2.62 µM.
The IC90 is the point of the concentration-response curve where the effect stands at 90%. On to `C[C@@H]1[C@H](O)[C@@H](C)/C=C/C=C/C=C/C=C/C=C/C=C/C=C/[C@H](O[C@@H]2O[C@H](C)[C@@H](O)[C@H](N)[C@@H]2O)C[C@@H]2O[C@](O)(C[C@@H](O)C[C@@H](O)[C@H](O)CC[C@@H](O)C[C@@H](O)CC(=O)O[C@H]1C)C[C@H](O)[C@H]2C(=O)O` [AMPHOTERICIN B, amphotericin B], for which the “Plasma membrane permeability (SYTOX Green fluorescence)” value in series [3] is “emitted green fluorescence”. In series [1], the “S.I. ATCC 30,808 (selectivity index CC50/IC50)” value is recorded as at least 1650. The IC50 in series [1] stood at 0.12 ± 0.03 µM; in series [5], 0.16 ± 0.02 µM; in series [2], 0.53 ± 0.03 µM. Moreover, the IC90 in series [1] was determined as 0.35 ± 0.02 µM. The “Inhibition of ATP synthesis in comparison to the negative control” value in series [4] was above 98%. Besides, the “Chromatin condensation (Hoechst 33,342 blue fluorescence)” value in series [6] is on record as “emission of blue fluorescence was observed”. In series [7], the “Mitochondrial membrane potential (JC-1 fluorescence)” value is given as “green fluorescence emission was also shown”.
On to `CCCN1CCC=C(c2cc(-c3ccc(C)cc3)no2)C1` [PD-144418], for which the “S.I. ATCC 30,808 (selectivity index CC50/IC50)” value in series [1] is recorded as 10.35. Moreover, the results for the IC50 in series [1], in series [5] and in series [2] were 4.71 ± 0.95 µM, 6.48 ± 2.83 µM and 10.4 ± 2.3 µM, respectively. Also, the IC90 in series [1] worked out at 17.4 ± 3.28 µM.
For `CC(C)N1CCN(c2ccc(OCC3COC(Cn4cncn4)(c4ccc(Cl)cc4Cl)O3)cc2)CC1` (stereo not drawn) [TERCONAZOLE, terconazole], in that order: 22.99, 3.68 ± 0.61 µM, 0.81 ± 0.49 µM, 2.46 ± 0.28 µM and 30.9 ± 2.38 µM.

Values taken from paper PMC11091526 (International Journal for Parasitology: Drugs and Drug …, 2024).
